In general, IC50 refers to the point on the concentration scale where inhibition reaches its midpoint. Read a low IC50 as greater potency in that assay.

For the assay, the target named is T1, human Mas receptor (Homo sapiens, UniProt P04201).
T1 construct: expressed in transfected cells
T1 sequence (P04201 1-325): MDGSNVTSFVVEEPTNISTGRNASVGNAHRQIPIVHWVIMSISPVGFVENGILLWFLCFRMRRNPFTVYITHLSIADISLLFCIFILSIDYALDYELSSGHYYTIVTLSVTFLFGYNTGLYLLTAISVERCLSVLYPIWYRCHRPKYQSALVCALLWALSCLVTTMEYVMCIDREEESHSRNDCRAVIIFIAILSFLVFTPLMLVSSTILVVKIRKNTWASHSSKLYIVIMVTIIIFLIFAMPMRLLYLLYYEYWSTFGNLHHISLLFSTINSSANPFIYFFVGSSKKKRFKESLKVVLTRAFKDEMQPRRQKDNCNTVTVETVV
The experiment in a line: Mas receptor IP3 assay (inverse agonist assay). Type of assay: cell-based. To be noted: HEK293 cells over-expressing human Mas receptor; average from several experiments. As for the experimental part:
The Mas receptor IP3 assay was performed using a mammalian cell line (HEK293) which was transfected with a plasmid containing the human Mas receptor and selected for stable expression of the receptor. For the inverse agonist assay, higher levels of Mas receptor constitutive activity were desired. To achieve this, Mas receptor expression levels were increased by transiently transfecting the same Mas receptor stable cell line with additional human Mas receptor plasmid DNA following standard procedures. These cells were used in the Mas receptor IP3 assay approximately 24 hours post-transfection.
Cells were split into 96-well plates (50,000 cells/well) and allowed to attach for a period of 6 hours. The growth medium was then replaced with medium supplemented with 4 μCi/ml [^3H]myo-inositol (100 μl; Perkin Elmer Life Sciences) and the cells were allowed to incubate for approximately 20 hours. Test compounds were serially diluted in inositol-free media containing 10 mM LiCl. The media in the plates was removed by aspiration, replaced with these test compound solutions and incubated at 37° C. for 1 hour. Following this incubation, the media was removed by aspiration and replaced with buffer containing 0.1M formic acid. The plates were then frozen overnight at −80° C. to achieve complete cell lysis.
The following day, the assay plates were thawed at room temperature. The thawed contents were then transfered to 96-well filter plates (Millipore, Multiscreen) pre-loaded with resin (Biorad, AG1-X8 100-200 mesh, formate form). The plate was filtered using a vacuum manifold and the resin was washed multiple times with water. An elution buffer was then applied (200 μl, 0.2M Ammonium formate/0.1M formic acid) and the resulting eluent was collected, under vacuum, in a 96-well collection plate. Aliquots of the eluent (80 μl) were transferred to filter plates (Whatman, Unifilter GF/C) and dried in a 45° C. oven overnight. Dried plates were counted on a scintillation counter following the addition of an appropriate scintillant (Perkin Elmer Life Sciences, Optiphase Supermix or Hi-Safe 3).

`O=C(c1ccccc1Cl)N1CC2(CCN(CC3CC3)CC2)c2ccccc21` [Compound 101, 1′-(cyclopropylmethyl)-1,2-dihydro-1-(2-chloro-benzoyl)-spiro[3H-indole-3,4′-piperidine]] had a half-inhibitory concentration (IC50) of 792 nM.

With `C=CCN1CCC2(CC1)CN(C(=O)c1ccc(F)c(C(F)(F)F)c1)c1ccc(F)cc12` [Compound 88, 1′-(allyl)-1,2-dihydro-5-fluoro-1-(3-trifluoromethyl-4-fluoro-benzoyl)-spiro[3H-indole-3,4′-piperidine]], the IC50 amounted to 896 nM. Compound `CN1CCC2(CC1)CN(C(=O)c1cccc(C(Cl)Cl)c1)c1ccc(F)cc12` [Compound 199, 1′-(methyl)-1,2-dihydro-5-fluoro-1-(3-dichloromethyl-benzoyl)-spiro[3H-indole-3,4′-piperidine]] showed a half-maximal inhibitory concentration (IC50) of 382 nM.
